Read-outs that look alike come from different tables or passages of the source. Marks after values point to notes of the source that are not given here. Non-standard residues stand in square brackets, D forms with d. Residues, ends and D or L forms follow the SMILES beside them. Dmt = Cc1cc(O)cc(C)c1C[C@H](N)C(=O)O; d(β3hA) = C[C@@H](N)CC(=O)O
Tests used:
[1] = biological target: mu receptor-β-arrestin 2 interaction (Homo sapiens, UniProt P35372); experiment: BRET mu-β-arrestin 2 interaction assay (living SH-SY5Y cells, mu-RLuc/β-arrestin 2-RGFP), agonism
Procedure: (§1) SH-SY5Y cells stably co-expressing the fusoproteins mu-RLuc and Gβ1-RGFP or mu-RLuc and β-arrestin 2-RGFP were grown in DMEM/F12 (1:1) medium supplemented with 10% FBS, 2 mM L-Glutamine, 100 μg/mL hygromycin B, 400 μg/mL G418, 100 units/mL penicillin G, 100 μg/mL streptomycin and 1 μg/mL Fungizone at 37°C in a humidified atmosphere with of 5% CO2.
Mu- β-arrestin 2 interaction—Living SH-SY5Y cells expressing mu-RLuc and β-arrestin 2-RGFP were seeded at a cell density of 100,000 cells/well 24 h prior to the test. On the day of the experiment, medium was discarded, and cells were washed with PBS supplemented with 0.5 mM MgCl2, 0.9 mM CaCl2. Cells were subsequently incubated with 2 μM Prolume Purple Coelenterazine (NanoLight Technology, White Mountain, AZ; United States) for 10 min before bioluminescence reading.
(§2) In agonism experiments, ligands were added and incubated for 5 min before microplate reading. […] BRET ratios were computed as follow: RGFPCPS/RLucCPSligand−RGFPCPS/RLucCPSvehicle
(§3) Concentration-response curves to agonists were fitted to the four-parameter logistic non-linear regression model as follows: Effect=Basal+Emax−Basal/1+10^LogEC50−Logligand×HillSlope

mu receptor = experiment: Bias factor, mu-G protein vs mu-β-arrestin 2 (BRET), EM-2 as standard ligand; conditions: log10 units, towards G protein
[2] = biological target: T1, human recombinant mu opioid receptor (Homo sapiens, UniProt P35372); experiment: Radioligand binding, [3H]DAMGO displacement, CHO cell membranes
T1 construct: purchased; host or cells: CHO cells (membranes)

human mu receptor = biological target: T2, human mu receptor (Homo sapiens, UniProt P35372); experiment: Calcium mobilization assay, CHO mu cells expressing Gαqi5; format: cell-based; conditions: for mu α±SEM: intrinsic activity, Emax ratio to standard agonist EM-2
T2 construct: expressed in transfected cells; host or cells: CHO cells stably co-expressing Gαqi5

delta-opioid receptor [3] = biological target: T3, delta-opioid receptor (Homo sapiens, UniProt P41143); experiment: Calcium mobilization assay, CHO delta cells expressing GαqG66Di5; format: cell-based; set-up: expressed in transfected cells; host or cells: CHO cells co-expressing GαqG66Di5; conditions: inactive = inactive up to 10 µM; for Delta pEC50 (CL95%): calcium mobilization; for Delta α± SEM: intrinsic activity, Emax ratio to standard agonist DPDPE
[4] = n-Octanol/water partition coefficient (log P); format: physicochemical; conditions: n-octanol / 0.05 M HEPES buffer in 0.1 M NaCl, pH 7.4
Procedure: Determination of log P was performed according to the method described by ([Liu et al., 2006]). Peptides were dissolved in 0.05 M HEPES buffer in 0.1 M NaCl, pH 7.4, then an equal volume of n-octanol was added and mixtures were vortexed for 2 min. Samples were centrifuged at 4,000 rpm for 1 min. After separation, aqueous and octanol phases were used to quantify peptide content by RP-HPLC.
Octanol phase was lyophilized and reconstituted in 80% acetonitrile in water containing 0.1% TFA before RP-HPLC. All n-octanol/buffer distribution studies were performed in triplicate.

delta-opioid receptor [5] = biological target: T3, delta-opioid receptor; experiment: Radioligand binding, [3H]deltorphin-2 displacement, CHO cell membranes; set-up: purchased; host or cells: CHO cells (membranes)
[6] = Enzymatic degradation in rat brain homogenate; format: in vitro ADME; conditions: for 100 x k, rate constant of degradation: up to 60 min; for half-life at 0.25 mM: ln2/k, read-out: t1/2, degradation half-life
Procedure: Enzymatic degradation of EM-2 and the analogs was performed measuring their hydrolysis rates in the presence of rat brain homogenate. The homogenate was prepared prior to the experiment. Briefly, rat brains were homogenized in 20 volumes of Tris–HCl (50 mM, pH 7.4) using a Polytron and the obtained aliquots were stored at −80°C. In the experiment, aliquotes of brain homogenate (100 μL, 10 mg protein/mL) were incubated with 100 µL of a peptide (0.5 mM) over 0, 7.5; 15, 22.5; 30, and 60 min at 37°C, in a final volume of 200 µL. After the incubation the degradation reaction was stopped by placing the tube on ice and acidifying the content with 20 µL of HCl (1 M). The aliquots were centrifuged at 20,000 g for 10 min at 4°C. The supernatants were collected and filtered using Millex-GV syringe filters (Millipore). Then the analysis by HPLC on a Vydac C18 column (5 μm, 4.6 × 250 mm), using the solvent system of 0.1% TFA in water (A) and 80% acetonitrile in water containing 0.1% TFA (B) and a linear gradient of 0%–100% B over 25 min, was performed. Three independent experiments for each assay were carried out in duplicate. The rate constants of degradation (k) were obtained by the least square linear regression analysis of logarithmic peak areas [ln (A/AD)], where A—amount of remained peptide, AD—initial amount of peptide versus time. Degradation half-lives (t1/2) were calculated from the rate constants as ln2/k.

[7] = biological target: mu receptor-G protein interaction (Homo sapiens, UniProt P35372); experiment: BRET mu-G protein interaction assay (membranes of SH-SY5Y cells, mu-RLuc/Gβ1-RGFP)
Procedure: as §1
Total protein in membrane preparations was determined by colorimetric method with the Quantum Protein-BCA kit (EuroClone, Pero (MI), IT) and measured using the multiplate reader Victor Nivo (PerkinElmer, Walthman, MA, United States). White opaque 96 wells microplates (PerkinElmer, Walthman, MA, United States) were used to carry out BRET assays. Cell membranes were thawed and resuspended in PBS supplemented with 0.02% BSA before the assay, and an amount of 5 μg of total protein was dispensed in each 96 well. All experiments were carried out at room temperature.
as §2, §3

human kappa receptor = biological target: T4, human kappa receptor (Homo sapiens, UniProt P41145); experiment: Calcium mobilization assay, CHO kappa cells expressing Gαqi5; format: cell-based; conditions: inactive = inactive up to 10 µM; for Kappa pEC50 (CL95%): calcium mobilization; for Kappa α± SEM: intrinsic activity, Emax ratio to standard agonist dynorphin A
T4 construct: expressed in transfected cells; host or cells: CHO cells stably co-expressing Gαqi5

[8] = biological target: T5, human recombinant kappa opioid receptor (Homo sapiens, UniProt P41145); experiment: Radioligand binding, [3H]U-69593 displacement, CHO cell membranes
T5 construct: purchased; host or cells: CHO cells (membranes)

[9] = inactive = inactive up to 10 µM
[10] = rat, pH 7.4, rat brain homogenate, 37°C
[11] = [3H]DAMGO, n ≥ 3, read-out: Ki ± SEM, mu
[12] = calcium mobilization, inactive = inactive up to 10 µM, read-out: mu pEC50 (CL95%) (converted)
[13] = [3H]deltorphin-2, n ≥ 3, read-out: Ki ± SEM, Delta

T4 sequence (P41145 whole entry): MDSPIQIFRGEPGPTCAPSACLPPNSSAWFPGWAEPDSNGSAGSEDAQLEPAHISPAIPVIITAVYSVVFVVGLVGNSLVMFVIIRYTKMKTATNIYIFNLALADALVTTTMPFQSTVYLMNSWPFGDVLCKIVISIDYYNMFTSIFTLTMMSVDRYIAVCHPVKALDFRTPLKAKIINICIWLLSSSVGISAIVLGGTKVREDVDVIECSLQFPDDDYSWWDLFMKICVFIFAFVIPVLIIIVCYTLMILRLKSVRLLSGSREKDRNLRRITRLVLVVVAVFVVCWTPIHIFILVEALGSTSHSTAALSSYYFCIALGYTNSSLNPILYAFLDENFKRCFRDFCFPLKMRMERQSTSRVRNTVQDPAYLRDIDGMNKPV
T5 sequence (P41145 whole entry): as above
mu receptor-G protein interaction, sequence (P62871 whole entry): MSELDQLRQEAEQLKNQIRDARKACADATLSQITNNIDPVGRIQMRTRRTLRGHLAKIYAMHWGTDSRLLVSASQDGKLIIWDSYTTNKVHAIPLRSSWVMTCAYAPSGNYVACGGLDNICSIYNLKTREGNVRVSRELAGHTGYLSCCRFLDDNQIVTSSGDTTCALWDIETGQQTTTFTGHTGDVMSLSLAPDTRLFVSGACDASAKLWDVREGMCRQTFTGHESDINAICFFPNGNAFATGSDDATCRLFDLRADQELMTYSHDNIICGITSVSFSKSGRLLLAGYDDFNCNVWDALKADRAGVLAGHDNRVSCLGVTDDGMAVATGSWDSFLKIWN
mu receptor-G protein interaction, sequence (P35372 whole entry): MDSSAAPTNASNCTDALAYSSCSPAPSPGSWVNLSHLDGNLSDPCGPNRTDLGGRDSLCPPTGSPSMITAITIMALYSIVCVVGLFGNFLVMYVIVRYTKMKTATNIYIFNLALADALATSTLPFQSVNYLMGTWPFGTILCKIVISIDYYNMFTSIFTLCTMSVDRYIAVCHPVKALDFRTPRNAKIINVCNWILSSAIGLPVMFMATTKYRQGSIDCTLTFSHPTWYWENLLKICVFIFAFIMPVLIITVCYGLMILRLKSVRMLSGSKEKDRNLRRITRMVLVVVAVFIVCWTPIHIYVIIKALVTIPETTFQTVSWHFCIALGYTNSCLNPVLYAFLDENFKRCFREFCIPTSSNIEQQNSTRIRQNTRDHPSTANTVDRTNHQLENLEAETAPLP
T3 sequence (P41143 whole entry): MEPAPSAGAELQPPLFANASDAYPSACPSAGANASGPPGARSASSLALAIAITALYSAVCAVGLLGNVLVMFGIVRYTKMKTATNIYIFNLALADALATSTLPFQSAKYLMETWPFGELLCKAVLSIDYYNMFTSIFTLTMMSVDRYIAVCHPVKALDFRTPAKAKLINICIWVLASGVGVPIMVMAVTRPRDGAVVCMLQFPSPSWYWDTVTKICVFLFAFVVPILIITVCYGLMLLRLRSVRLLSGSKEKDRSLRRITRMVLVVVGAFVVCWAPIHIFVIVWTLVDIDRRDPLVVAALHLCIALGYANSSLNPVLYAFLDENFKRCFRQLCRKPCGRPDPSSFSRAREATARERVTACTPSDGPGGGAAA
mu receptor-β-arrestin 2 interaction, sequence (P35372 whole entry): as the sequence (P35372 whole entry) above
T2 sequence (P35372 whole entry): as above
T1 sequence (P35372 whole entry): as above

Row | Structure (SMILES) | EC50 [1] [nM] | Bias factor (CL95%) (mu receptor) | Ki [2] [nM] | EC50 (human mu receptor) [nM] | mu α±SEM (human mu receptor; [9]) | Delta pEC50 (CL95%) (delta-opioid receptor [3]) | Delta α± SEM (delta-opioid receptor [3]) | logD [4] | Ki (delta-opioid receptor [5]) [nM] | 100 x k, rate constant of degradation ([6]; 37°C) [per min] | half-life at 0.25 mM [6, 10] [h] | EC50 [7] [nM] | Kappa pEC50 (CL95%) (human kappa receptor) | Kappa α± SEM (human kappa receptor) | Ki [8] [nM] | other results
1 | Cc1cc(O)cc(C)c1C[C@H](N)C(=O)N1CCC[C@H]1C(=O)N[C@@H](Cc1ccccc1)C(=O)N[C@@H](Cc1ccccc1)C(N)=O [analog 1, Dmt-Pro-Phe-Phe-NH2] | 11.7 | 0.48 (0.34–0.62) | 0.54 ± 0.03 | 2.51 | 0.85 ± 0.02 | inactive | inactive | 2.16 | 560 ± 41 | 3.31 ± 0.12 | 0.347 ± 0.02 | 3.09 | – | – | – | fold higher potency than EM-2 (human mu receptor; calcium mobilization, mu): 3 fold
2 | NC(=O)[C@H](Cc1ccccc1)NC(=O)[C@H](Cc1ccccc1)NC(=O)[C@@H]1CCCN(C(=O)[C@@H](N)Cc2ccc(O)cc2)C1 [analog 4, Tyr-(R)-Nip-Phe-Phe-NH2] | 43.7 | −0.02 (−0.04-0.00) | – | – | 0.99 ± 0.04 | inactive | inactive | 1.68 | – | 1.05 ± 0.08 | – | 11.2 | inactive | inactive | > 1000 | β-Arrestin 2 Emax±sem [1]: 1.30 ± 0.03; Ki [2, 11]: 0.85 ± 0.17 nM; EC50 (human mu receptor; [12]): 2.69 nM; Ki (delta-opioid receptor [5]; [13]): > 1000 nM; half-life at 0.25 mM ([6]; pH 7.4, 37°C): 1.09 ± 0.04 h
3 | Cc1cc(O)cc(C)c1C[C@H](N)C(=O)N1CCC[C@@H](C(=O)N[C@@H](Cc2ccccc2)C(=O)N[C@@H](Cc2ccccc2)C(N)=O)C1 [analog 5, Dmt-(R)-Nip-Phe-Phe-NH2] | 3.63 | −0.08 (−0.25-0.10) | 0.14 ± 0.06 | 0.316 | 1.00 ± 0.02 | inactive | inactive | 1.8 | 589 ± 28 | 0.77 ± 0.06 | 1.49 ± 0.05 | 1.1 | inactive | inactive | 567 ± 39 | –
4 | C[C@H](CNC(=O)[C@@H](N)Cc1ccc(O)cc1)C(=O)N[C@@H](Cc1ccccc1)C(=O)N[C@@H](Cc1ccccc1)C(N)=O [analog 6, Tyr-(R)-β ^ 2 -Ala-Phe-Phe-NH2] | 14100 | 1.35 (1.15–1.55) | – | – | 0.88 ± 0.06 | inactive | inactive | 1.75 | – | 1.03 ± 0.07 | – | 417 | inactive | inactive | > 1000 | β-Arrestin 2 Emax±sem [1]: ∼1 ^a; Ki [2, 11]: 46.8 ± 5.18 nM; EC50 (human mu receptor; [12]): 30.2 nM; Ki (delta-opioid receptor [5]; [13]): > 1000 nM; half-life at 0.25 mM ([6]; pH 7.4, 37°C): 1.11 ± 0.045 h
5 | Cc1cc(O)cc(C)c1C[C@H](N)C(=O)NC[C@@H](C)C(=O)N[C@@H](Cc1ccccc1)C(=O)N[C@@H](Cc1ccccc1)C(N)=O [analog 7, Dmt-(R)-β ^ 2 -Ala-Phe-Phe-NH2] | 19.1 | 0.67 (0.49–0.84) | 0.31 ± 0.09 | 0.692 | 0.95 ± 0.03 | inactive | inactive | 2.33 | 571 ± 55 | 0.51 ± 0.03 | 2.26 ± 0.0717 | 4.57 | inactive | inactive | 807 ± 46 | –
6 | C[C@H](CC(=O)N[C@@H](Cc1ccccc1)C(=O)N[C@@H](Cc1ccccc1)C(N)=O)NC(=O)[C@@H](N)Cc1ccc(O)cc1 [analog 8, Tyr-(R)-β ^ 3 -Ala-Phe-Phe-NH2] (H-Y[d(β3hA)]FF-NH2; N-terminus assumed) | 77.6 | 0.76 (0.55–0.98) | 0.44 ± 0.1 | 1 | 0.99 ± 0.02 | inactive | inactive | 1.71 | > 1000 | 0.82 ± 0.04 | 1.4 ± 0.065 | 7.41 | inactive | inactive | > 1000 | –
7 | Cc1cc(O)cc(C)c1C[C@H](N)C(=O)N[C@H](C)CC(=O)N[C@@H](Cc1ccccc1)C(=O)N[C@@H](Cc1ccccc1)C(N)=O [analog 9, Dmt-(R)-β ^ 3 -Ala-Phe-Phe-NH2] (H-[Dmt][d(β3hA)]FF-NH2; N-terminus assumed) | 2.14 | 0.27 (0.16–0.38) | 0.14 ± 0.07 | 0.457 | 1.00 ± 0.05 | inactive | inactive | 2.09 | 286 ± 18 | 1.90 ± 0.04 | 0.605 ± 0.0467 | 0.724 | inactive | inactive | 890 ± 42 | –
8 | NC(=O)[C@H](Cc1ccccc1)NC(=O)C[C@@H](Cc1cccc2ccccc12)NC(=O)[C@@H]1CCCN1C(=O)[C@@H](N)Cc1ccc(O)cc1 [analog 12, Tyr-Pro-(R)-β ^ 3 -1-Nal-Phe-NH2] | 145 | 0.23 (0.06–0.41) | – | 47.9 | 0.97 ± 0.02 | inactive | inactive | 3.01 | > 1000 | 1.28 ± 0.05 | 0.898 ± 0.0683 | 77.6 | inactive | inactive | > 1000 | –
9 | Cc1cc(O)cc(C)c1C[C@H](N)C(=O)N1CCC[C@H]1C(=O)N[C@@H](CC(=O)N[C@@H](Cc1ccccc1)C(N)=O)Cc1cccc2ccccc12 [analog 13, Dmt-Pro-(R)-β ^ 3 -1-Nal-Phe-NH2] | 4.37 | 0.27 (0.20–0.34) | – | 3.8 | 0.77 ± 0.02 | inactive | inactive | 3.16 | – | 1.69 ± 0.07 | 0.68 ± 0.0667 | 3.63 | inactive | inactive | – | –

— paper PMC9998502, “Functional selectivity of EM-2 analogs at the mu-opioid receptor” (Frontiers in Pharmacology, 2023)
